Columns and labels:
CD209 antigen = biological target: T1, CD209 antigen (Homo sapiens, UniProt Q9NNX6); experiment: Inhibition of DC-SIGN (unknown origin)
T1 sequence (Q9NNX6 whole entry): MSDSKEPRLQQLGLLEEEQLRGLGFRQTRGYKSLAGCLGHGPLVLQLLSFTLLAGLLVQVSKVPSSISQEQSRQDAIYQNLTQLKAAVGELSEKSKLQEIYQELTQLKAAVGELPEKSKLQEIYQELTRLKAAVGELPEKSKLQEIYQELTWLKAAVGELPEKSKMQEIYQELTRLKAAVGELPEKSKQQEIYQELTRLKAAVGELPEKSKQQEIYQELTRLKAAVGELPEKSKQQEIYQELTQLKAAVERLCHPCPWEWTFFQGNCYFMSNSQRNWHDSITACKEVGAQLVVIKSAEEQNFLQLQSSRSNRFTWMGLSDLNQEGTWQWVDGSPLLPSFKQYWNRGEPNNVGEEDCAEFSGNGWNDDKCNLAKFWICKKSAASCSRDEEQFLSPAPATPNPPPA

[1] = biological target: T2, L-selectin (Homo sapiens) (UniProt P14151); experiment: Inhibition of human L-selectin transfected in mouse 300.19 cells assessed as decrease in protein-mediated cell rolling on GlyCAM-1 or PNAd preincubated for 5 mins followed by cell perfusion through laminar flow chamber coated with GlyCAM-1 or PNAd relative to control; type: cell-based
T2 sequence (whole entry): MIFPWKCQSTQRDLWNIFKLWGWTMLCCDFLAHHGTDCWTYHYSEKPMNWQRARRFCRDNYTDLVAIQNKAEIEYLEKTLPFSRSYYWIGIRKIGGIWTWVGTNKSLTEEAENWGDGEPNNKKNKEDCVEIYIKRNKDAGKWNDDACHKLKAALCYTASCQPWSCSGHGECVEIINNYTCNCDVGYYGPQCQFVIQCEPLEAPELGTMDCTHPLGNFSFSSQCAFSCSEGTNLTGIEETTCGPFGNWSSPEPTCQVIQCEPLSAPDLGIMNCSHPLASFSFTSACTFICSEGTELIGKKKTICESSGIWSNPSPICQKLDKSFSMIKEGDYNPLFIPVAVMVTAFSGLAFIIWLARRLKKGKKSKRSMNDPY

SMILES	fold change (FC) [1]	further results
CC(=O)N[C@@H]1C(O)O[C@H](CO)[C@@H](O)[C@@H]1O (some centres undefined)		Ki (CD209 antigen): 11 mM
CCCO[C@@H]1O[C@H](CO)[C@@H](O[C@@H]2O[C@H](CO)[C@H](O)[C@H](O[C@]3(C(=O)O)C[C@H](O)[C@@H](NC(C)=O)[C@H]([C@H](O)[C@H](O)CO)O3)[C@H]2O)[C@H](O[C@@H]2O[C@@H](C)[C@@H](O)[C@@H](O)[C@@H]2O)[C@@H]1O	1	
NC(=O)[C@@H](CCC(=O)O)NC(=O)[C@H]1C[C@@H](O)[C@H](O)[C@H](O)[C@H]1SCCCCSCc1cccc(F)c1		IC50 (CD209 antigen): 3.2 mM
CCCO[C@@H]1O[C@H](COS(=O)(=O)O)[C@@H](O[C@@H]2O[C@H](CO)[C@H](O)[C@H](O[C@]3(C(=O)O)C[C@H](O)[C@@H](NC(C)=O)[C@H]([C@H](O)[C@H](O)CO)O3)[C@H]2O)[C@H](O[C@@H]2O[C@@H](C)[C@@H](O)[C@@H](O)[C@@H]2O)[C@@H]1O	3	
